The record followed here is patent publication US6596512B1 (American Cyanamid Company, priority 1997, dated 2003).

For data set [1], the target named is T1, CeDAT1 (Caenorhabditis elegans, UniProt Q03614).
T1 sequence (Q03614 20-615): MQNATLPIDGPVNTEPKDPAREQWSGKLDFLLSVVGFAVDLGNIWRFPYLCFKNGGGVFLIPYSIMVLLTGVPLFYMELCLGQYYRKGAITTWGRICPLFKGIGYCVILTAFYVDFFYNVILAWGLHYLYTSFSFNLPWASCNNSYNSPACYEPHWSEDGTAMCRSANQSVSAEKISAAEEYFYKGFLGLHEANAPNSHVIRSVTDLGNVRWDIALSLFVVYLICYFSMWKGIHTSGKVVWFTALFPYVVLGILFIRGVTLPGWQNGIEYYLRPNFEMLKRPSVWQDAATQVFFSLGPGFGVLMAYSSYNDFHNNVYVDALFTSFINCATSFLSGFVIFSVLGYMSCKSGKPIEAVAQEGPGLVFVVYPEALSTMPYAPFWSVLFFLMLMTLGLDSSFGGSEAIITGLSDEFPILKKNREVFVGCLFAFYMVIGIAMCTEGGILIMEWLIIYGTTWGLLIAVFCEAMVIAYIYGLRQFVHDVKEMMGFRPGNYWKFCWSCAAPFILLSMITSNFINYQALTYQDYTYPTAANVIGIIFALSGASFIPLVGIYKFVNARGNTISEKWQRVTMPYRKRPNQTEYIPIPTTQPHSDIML
The class given is cell-based, C. elegans. The settings on record: radiolabeled substrates each at 50 nm, pCeDAT1.

Data set [2] deals with CeDAT2 (Caenorhabditis elegans). The data set is classed as cell-based, C. elegans. Particulars: radiolabeled substrates each at 50 nm, pCeDAT2.
Chain of CeDAT2 (Caenorhabditis elegans) (Q03614 whole entry): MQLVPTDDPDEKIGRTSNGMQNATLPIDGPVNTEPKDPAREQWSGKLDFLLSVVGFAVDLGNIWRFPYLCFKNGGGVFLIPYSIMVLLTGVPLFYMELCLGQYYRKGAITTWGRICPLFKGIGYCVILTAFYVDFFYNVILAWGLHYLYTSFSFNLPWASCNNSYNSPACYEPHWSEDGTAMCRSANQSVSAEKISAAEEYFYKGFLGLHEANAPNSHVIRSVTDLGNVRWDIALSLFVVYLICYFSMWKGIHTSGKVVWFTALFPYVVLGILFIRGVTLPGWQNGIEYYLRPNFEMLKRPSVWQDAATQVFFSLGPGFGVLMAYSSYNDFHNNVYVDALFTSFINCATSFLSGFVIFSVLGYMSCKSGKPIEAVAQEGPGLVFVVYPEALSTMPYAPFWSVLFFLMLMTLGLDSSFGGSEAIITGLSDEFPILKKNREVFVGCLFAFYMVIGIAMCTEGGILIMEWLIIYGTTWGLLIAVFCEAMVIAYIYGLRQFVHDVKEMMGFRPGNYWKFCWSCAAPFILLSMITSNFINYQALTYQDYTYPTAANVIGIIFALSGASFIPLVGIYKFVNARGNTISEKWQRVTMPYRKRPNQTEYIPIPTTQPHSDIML
The target of data set [3] is T1, CeDAT1. Description: cell-based. The arrangement: species or system C. elegans.
Data set [4] deals with T1, CeDAT1. Put plainly: Saturation kinetics of catecholamine transport in pCeDAT1 transfected HeLa cells. The class given is cell-based, C. elegans. Particulars: radiolabeled substrate.
Substrate in data set [5]: NC[C@H](O)c1ccc(O)c(O)c1
Put plainly: cells, lysate or membranes. Particulars: 37.0 °C.

Consider `NCCc1c[nH]c2ccc(O)cc12` [5HT, Serotonin], for which the “Transport of radiolabeled substrate” value is given as “little or no transport” in data set [1] and “transported only at very low levels” in data set [2].

As a reminder, the Ki is the dissociation constant of the complex between target and ligand, obtained from inhibition or displacement. As for `NCCc1ccc(O)c(O)c1` [DA, Dopamine], the affinity in data set [3], expressed as Ki, was 146 nM. The “Potency as inhibitor of transport relative to L-NE” value in data set [3] (pCeDAT1, HeLa cells, DA versus L-NE) is given as approximately 10 fold. For the same molecule, the Vmax of transport in data set [4] was 0.6 pmol/10^6 cells/min. In data set [1], the “Extent of transport relative to NE” value is reported as approximately 2 fold.

Take `CNC[C@H](O)c1ccc(O)c(O)c1` [Epi]: the “Transport of radiolabeled substrate” value in data set [1] is “little or no transport”; in data set [2] it was “transported only at very low levels”.

Turning to `Fc1ccc(C(OCCN2CCN(CCCc3ccccc3)CC2)c2ccc(F)cc2)cc1` [GBR12909], in data set [3], the affinity, expressed as Ki, was 70 nM.

For the molecule `NC[C@H](O)c1ccc(O)c(O)c1` [NE, Norepinephrine], the Vmax of transport in data set [4] is on record as 0.46 pmol/10^6 cells/min.

The molecule `NCCc1ccc(O)cc1` [Tyramine] came in with an inhibitory constant (Ki) in data set [3] of 827 nM.

With `COC(=O)[C@H]1[C@@H](OC(=O)c2ccccc2)C[C@@H]2CC[C@H]1N2C` [cocaine], affinity in data set [3] was put at a Ki of 3500 nM.

`OC1(c2ccc(Cl)cc2)c2ccccc2C2=NCCN21` (stereo not drawn) [mazindol]: the affinity in data set [3] corresponds to a Ki of 8 nM. This Ki lies about 440-fold lower than the previous one.

Consider `CNCCC(Oc1ccccc1OC)c1ccccc1` (stereo not drawn) [nisoxetine], for which, in data set [3], the Ki stood at 3 nM. Compared with the last molecule, the Ki is about 2.7-fold lower.

B1: CeDAT1 (Caenorhabditis elegans) (protein)
chain: MQNATLPIDGPVNTEPKDPAREQWSGKLDFLLSVVGFAVDLGNIWRFPYLCFKNGGGVFLIPYSIMVLLTGVPLFYMELCLGQYYRKGAITTWGRICPLFKGIGYCVILTAFYVDFFYNVILAWGLHYLYTSFSFNLPWASCNNSYNSPACYEPHWSEDGTAMCRSANQSVSAEKISAAEEYFYKGFLGLHEANAPNSHVIRSVTDLGNVRWDIALSLFVVYLICYFSMWKGIHTSGKVVWFTALFPYVVLGILFIRGVTLPGWQNGIEYYLRPNFEMLKRPSVWQDAATQVFFSLGPGFGVLMAYSSYNDFHNNVYVDALFTSFINCATSFLSGFVIFSVLGYMSCKSGKPIEAVAQEGPGLVFVVYPEALSTMPYAPFWSVLFFLMLMTLGLDSSFGGSEAIITGLSDEFPILKKNREVFVGCLFAFYMVIGIAMCTEGGILIMEWLIIYGTTWGLLIAVFCEAMVIAYIYGLRQFVHDVKEMMGFRPGNYWKFCWSCAAPFILLSMITSNFINYQALTYQDYTYPTAANVIGIIFALSGASFIPLVGIYKFVNARGNTISEKWQRVTMPYRKRPNQTEYIPIPTTQPHSDIML
As a reminder, the Km is the concentration of substrate that gives half-maximal velocity. Turning to B1, the Km in data set [5] worked out at 4.1 µM.
